*1 amine or outer side, *2 acyl side, *3 side chain or, on linkers, in order; H or OH if unused. Where a SMILES comes first, the peptide text is derived from it. Bridges are numbered along the chain shown (N, C = ends). [ ]: non-standard residue; d: D form. The star is where a group is joined. C20 diacid = O=C(O)CCCCCCCCCCCCCCCCCCC(=O)*; γGlu = O=C(O)[C@H](CCC(=O)[*:2])N[*:1]; Hyp = O=C(O)[C@@H]1C[C@@H](O)CN1; NMeI = CC[C@H](C)[C@H](NC)C(=O)O; Sar = CNCC(=O)O
Legend:
[1] = Assessment of chemical stability (RP-HPLC normalized purity); assay type: physicochemical; details: 7 days, 40° C., Table 1; for Normalized purity after 7 days, 40° C., pH 4: pH 4, 0.2 mg/ml; for Normalized purity after 7 days, 40° C., pH 6: pH 6, 0.2 mg/ml; for Normalized purity after 7 days, 40° C., pH 7.5: pH 7.5, 0.2 mg/ml; for Normalized purity after 7 days, 40° C., pH 9: pH 9, 0.2 mg/ml
How it was run: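 Peptides at 0.2 mg/ml in water adjusted to pH 4, 6, 7.5 or 9, incubated at 40° C for 7 days. Main-peak area-% by RP-HPLC (C8 ammonium formate or C18 TFA gradient, UV 220 nm), normalized to T=0 as 100.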

[2] = target: T1, human calcitonin receptor (hCTR2) (Homo sapiens, UniProt P30988); test: hCTR2 cAMP assay (AlphaScreen) in COS7 cells; assay type: cell-based; details: cAMP induction, COS7 cells expressing hCTR2; Table 1; read-out: hCTR2 EC50
T1 construct: expressed in transfected cells
T1 sequence (P30988 25-474): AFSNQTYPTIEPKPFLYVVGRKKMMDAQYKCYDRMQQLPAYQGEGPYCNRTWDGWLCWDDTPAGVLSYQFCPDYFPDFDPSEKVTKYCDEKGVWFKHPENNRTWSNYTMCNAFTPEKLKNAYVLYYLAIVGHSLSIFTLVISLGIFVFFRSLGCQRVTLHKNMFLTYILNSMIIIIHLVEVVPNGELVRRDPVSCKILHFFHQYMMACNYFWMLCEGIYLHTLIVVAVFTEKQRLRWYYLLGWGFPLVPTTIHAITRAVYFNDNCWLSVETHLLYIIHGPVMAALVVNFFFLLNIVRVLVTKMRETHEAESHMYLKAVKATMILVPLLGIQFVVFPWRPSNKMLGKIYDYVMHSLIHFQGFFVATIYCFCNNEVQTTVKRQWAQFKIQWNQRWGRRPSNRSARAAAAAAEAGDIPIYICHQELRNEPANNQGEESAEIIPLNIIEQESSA
How it was run: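 Stable hCTR2 clone in RAMP-naïve COS7 cells stimulated 15 min at 37 °C with increasing peptide concentrations in Tyrode buffer pH 7.4 containing IBMX and 0.1% casein. cAMP in lysates measured by AlphaScreen; EC50 from 4-parameter logistic fit.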

[3] = target: T2, human amylin receptor 3 (hAMYR3), hCTR2 co-expressed with hRAMP3 (Homo sapiens, UniProt O60896+P30988); test: hAMYR3 cAMP assay (AlphaScreen) in COS7 cells; assay type: cell-based; details: cAMP induction, COS7 cells expressing hAMYR3; Table 1; read-out: hAMYR3 EC50
T2 construct: expressed in transfected cells
T2 sequence (P30988 25-474): T1 sequence (P30988 25-474)
T2 sequence (O60896 24-148 partner): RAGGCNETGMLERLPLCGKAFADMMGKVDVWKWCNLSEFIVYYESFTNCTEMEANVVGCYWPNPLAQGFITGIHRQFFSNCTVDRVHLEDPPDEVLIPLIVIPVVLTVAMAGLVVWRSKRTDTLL
How it was run: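 Stable COS7 clone co-expressing hCTR2 and hRAMP3 was exposed to increasing peptide concentrations in Tyrode buffer (pH 7.4) with 100 µM IBMX and 0.1% casein for 15 min at 37 °C. Lysate cAMP was measured by AlphaScreen; EC50 came from 4-parameter logistic fitting.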

[4] = Assessment of physical stability (Thioflavin T fibrillation); assay type: physicochemical; set-up: key: FND = fibrillation not detected; FD = fibrillation detected; details: 1 mg/ml, 40° C., ThT; for Fibrillation pH 4.0 (Ac): 50 mM acetate buffer pH 4.0, 96 hours; for Fibrillation pH 7.0 (His): 50 mM histidine buffer pH 7.0, 96 hours; for Fibrillation pH 7.0 (Phos.): 50 mM phosphate buffer pH 7.0, 96 hours
How it was run: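 1 mg/ml peptide with 40 μM ThT in 50 mM phosphate pH 7.0, 50 mM histidine pH 7.0 or 50 mM acetate pH 4.0, in triplicate. Fluorescence read every 10 min after 300 s agitation over 96 h at 40 °C. Lag-time (h) is the intersection of linear fits to stable and growth phases.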

Normalized purity after 7 days, 40° C., pH 4 [1]	Normalized purity after 7 days, 40° C., pH 6 [1]	Normalized purity after 7 days, 40° C., pH 7.5 [1]	Normalized purity after 7 days, 40° C., pH 9 [1]	EC50 [2] [nM]	EC50 [3] [nM]	Fibrillation pH 4.0 (Ac) [4]	Fibrillation pH 7.0 (His) [4]	Fibrillation pH 7.0 (Phos.) [4]	SMILES
A (A = >90%)	A (A = >90%)	A (A = >90%)	C (C = <70%)	0.16	0.28	FND	FND	FND	CC[C@H](C)[C@@H](C(=O)N[C@@H](CC(C)C)C(=O)N[C@@H](CO)C(=O)N[C@@H](CO)C(=O)N[C@H](C(=O)N[C@@H](CCC(=O)O)C(=O)N[C@H](C(=O)NCC(=O)N[C@@H](CO)C(=O)N[C@@H](CC(N)=O)C(=O)N[C@H](C(=O)N1C[C@H](O)C[C@H]1C(N)=O)[C@@H](C)O)C(C)C)[C@@H](C)O)N(C)C(=O)[C@H](C)NC(=O)CN(C)C(=O)[C@H](Cc1ccccc1)NC(=O)[C@H](CO)NC(=O)[C@H](CO)NC(=O)[C@H](CCCNC(=N)N)NC(=O)[C@H](CCCCN)NC(=O)[C@H](CC(C)C)NC(=O)[C@H](Cc1ccccc1)NC(=O)[C@H](Cc1c[nH]cn1)NC(=O)[C@H](C)NC(=O)[C@H](CC(C)C)NC(=O)[C@H](CCCNC(=N)N)NC(=O)[C@H](CCC(=O)O)NC(=O)[C@@H](NC(=O)[C@H](C)NC(=O)[C@@H]1CSSC[C@H](NC(=O)[C@H](CCCNC(=N)N)NC(=O)CC[C@H](NC(=O)CCCCCCCCCCCCCCCCCCC(=O)O)C(=O)O)C(=O)NCC(=O)N[C@@H]([C@@H](C)O)C(=O)N[C@@H](C)C(=O)N[C@@H]([C@@H](C)O)C(=O)N1)[C@@H](C)O [Compound 19, [19CD]-isoGlu-R-C( )-GTAT-C( )-ATERLAHFLKRSSF-Gly(Me)-A-Ile(Me)-LSSTEVGSNT-Hyp-NH2] ({C20 diacid-γGlu}-RCGTATCATERLAHFLKRSSF[Sar]A[NMeI]LSSTEVGSNT[Hyp]-NH2; disulfide 2-7)
				0.07	0.12	FND	FD	FD	CC[C@H](C)[C@@H](C(=O)N[C@@H](CC(C)C)C(=O)N[C@@H](CO)C(=O)N[C@@H](CO)C(=O)N[C@H](C(=O)N[C@@H](CCC(=O)O)C(=O)N[C@H](C(=O)NCC(=O)N[C@@H](CO)C(=O)N[C@@H](CO)C(=O)N[C@H](C(=O)N1C[C@H](O)C[C@H]1C(N)=O)[C@@H](C)O)C(C)C)[C@@H](C)O)N(C)C(=O)[C@H](C)NC(=O)CN(C)C(=O)[C@H](Cc1ccccc1)NC(=O)[C@H](CO)NC(=O)[C@H](CO)NC(=O)[C@H](CCCNC(=N)N)NC(=O)[C@H](Cc1c[nH]cn1)NC(=O)[C@H](CC(C)C)NC(=O)[C@H](Cc1ccccc1)NC(=O)[C@H](Cc1c[nH]cn1)NC(=O)[C@H](C)NC(=O)[C@H](CC(C)C)NC(=O)[C@H](CCCNC(=N)N)NC(=O)[C@H](CCC(=O)O)NC(=O)[C@@H](NC(=O)[C@H](C)NC(=O)[C@@H]1CSSC[C@H](NC(=O)[C@H](CCCNC(=N)N)NC(=O)CC[C@H](NC(=O)CCCCCCCCCCCCCCCCCCC(=O)O)C(=O)O)C(=O)NCC(=O)N[C@@H]([C@@H](C)O)C(=O)N[C@@H](C)C(=O)N[C@@H]([C@@H](C)O)C(=O)N1)[C@@H](C)O [Compound 30, [19CD]-isoGlu-R-C( )-GTAT-C( )-ATERLAHFLHRSSF-Gly(Me)-A-Ile(Me)-LSSTEVGSST-Hyp-NH2] ({C20 diacid-γGlu}-RCGTATCATERLAHFLHRSSF[Sar]A[NMeI]LSSTEVGSST[Hyp]-NH2; disulfide 2-7)
				0.17	0.23	FND	FD	FD	CC[C@H](C)[C@@H](C(=O)N[C@@H](CC(C)C)C(=O)N[C@@H](CO)C(=O)N[C@@H](CO)C(=O)N[C@H](C(=O)N[C@@H](CCC(=O)O)C(=O)N[C@H](C(=O)NCC(=O)N[C@@H](CO)C(=O)N[C@@H](Cc1ccccc1)C(=O)N[C@H](C(=O)N1C[C@H](O)C[C@H]1C(N)=O)[C@@H](C)O)C(C)C)[C@@H](C)O)N(C)C(=O)[C@H](C)NC(=O)CN(C)C(=O)[C@H](Cc1ccccc1)NC(=O)[C@H](CO)NC(=O)[C@H](CO)NC(=O)[C@H](CCCNC(=N)N)NC(=O)[C@H](CCC(N)=O)NC(=O)[C@H](CC(C)C)NC(=O)[C@H](Cc1ccccc1)NC(=O)[C@H](Cc1c[nH]cn1)NC(=O)[C@H](C)NC(=O)[C@H](CC(C)C)NC(=O)[C@H](CCCNC(=N)N)NC(=O)[C@H](CCC(=O)O)NC(=O)[C@@H](NC(=O)[C@H](C)NC(=O)[C@@H]1CSSC[C@H](NC(=O)[C@H](CCCNC(=N)N)NC(=O)CC[C@H](NC(=O)CCCCCCCCCCCCCCCCCCC(=O)O)C(=O)O)C(=O)NCC(=O)N[C@@H]([C@@H](C)O)C(=O)N[C@@H](C)C(=O)N[C@@H]([C@@H](C)O)C(=O)N1)[C@@H](C)O [Compound 32, [19CD]-isoGlu-R-C( )-GTAT-C( )-ATERLAHFLQRSSF-Gly(Me)-A-Ile(Me)-LSSTEVGSFT-Hyp-NH2] ({C20 diacid-γGlu}-RCGTATCATERLAHFLQRSSF[Sar]A[NMeI]LSSTEVGSFT[Hyp]-NH2; disulfide 2-7)
A (A = >90%)	A (A = >90%)	B (B = 70-90%)	B (B = 70-90%)	0.05	0.11	FND	FND	FND	CC[C@H](C)[C@@H](C(=O)N[C@@H](CC(C)C)C(=O)N[C@@H](CO)C(=O)N[C@@H](CO)C(=O)N[C@H](C(=O)N[C@@H](CCC(=O)O)C(=O)N[C@H](C(=O)NCC(=O)N[C@@H](CO)C(=O)N[C@@H](CO)C(=O)N[C@H](C(=O)N1CCC[C@H]1C(N)=O)[C@@H](C)O)C(C)C)[C@@H](C)O)N(C)C(=O)[C@H](C)NC(=O)CN(C)C(=O)[C@H](Cc1ccccc1)NC(=O)[C@H](CO)NC(=O)[C@H](CO)NC(=O)[C@H](CCCNC(=N)N)NC(=O)[C@H](CC(N)=O)NC(=O)[C@H](CC(C)C)NC(=O)[C@H](Cc1ccccc1)NC(=O)[C@H](Cc1c[nH]cn1)NC(=O)[C@H](C)NC(=O)[C@H](CC(C)C)NC(=O)[C@H](CCCNC(=N)N)NC(=O)[C@H](CCC(=O)O)NC(=O)[C@@H](NC(=O)[C@H](C)NC(=O)[C@@H]1CSSC[C@H](NC(=O)[C@H](CCCNC(=N)N)NC(=O)CC[C@H](NC(=O)CCCCCCCCCCCCCCCCCCC(=O)O)C(=O)O)C(=O)NCC(=O)N[C@@H]([C@@H](C)O)C(=O)N[C@@H](C)C(=O)N[C@@H]([C@@H](C)O)C(=O)N1)[C@@H](C)O [Compound 35, [19CD]-isoGlu-R-C( )-GTAT-C( )-ATERLAHFLNRSSF-Gly(Me)-A-Ile(Me)-LSSTEVGSSTP-NH2] ({C20 diacid-γGlu}-RCGTATCATERLAHFLNRSSF[Sar]A[NMeI]LSSTEVGSSTP-NH2; disulfide 2-7)

Reference: US20210115104A1, “AMYLIN ANALOGUES” (Zealand Pharma A/S, priority 2015, published 2021)
